Assay results reported in US12508245B2, “Co-therapies including a metastasis inhibitor” (priority 2017, dated 2025).

Legend:
MDA-MB-231 tumor cells = assay: Overall survival of NSG mice implanted with MDA-MB-231 tumor cells, combination treatment with chemotherapy; type: in vivo, human
Protocol: Vehicle solvent was given to control mice once a day for 6 days every week. Starting on day 15, doxorubicin hydrochloride (Sigma) (2 mg/kg) and cyclophosphamide monohydrate (Sigma) (60 mg/kg) were given to mice once a week for four weeks. Primary tumors were removed on day 29. Death of mice was used as the endpoint.

[1] = test system: 4T1 mouse breast tumor cells
Protocol: Female BALB/c mice (6-8 week old) were purchased from Charles River. 4T1 tumor cells (1×10^5) were injected subcutaneously into the abdominal mammary gland area of mice using 0.1 ml of a single-cell suspension in PBS on Day 0 as previously described. […] Starting on Day 8, when the tumors averaged about ˜4-5 mm in diameter, Compound A or control solvent were given once or twice every day by oral gavage at 10, 30, 100 or 300 mg/kg per mouse until Day 27. On Day 28, the mice were sacrificed. […] Numbers of metastatic 4T1 cells in lungs were determined by the clonogenic assay. In brief, lungs were removed from each mouse, finely minced and digested in 5 ml of enzyme cocktail containing 1×PBS and 1 mg/ml collagenase type IV for 2 hours at 37° C. on a platform rocker. After incubation, samples were filtered through 70-μm nylon cell strainers and washed twice with PBS. Resulting cells were suspended, plated with a series of dilutions in 10 cm tissue culture dishes in DMEM medium containing 60 μM thioguanine for clonogenic growth. As 4T1 tumor cells are resistant to 6-thioguanine, metastasized tumor cells formed foci after 14 days, at which time they were fixed with 4% paraformaldehyde and stained with crystal violet staining solution for counting. […]

[2] = Pharmacokinetic study of Compound A in mice: stability of the plasma samples (LC-MS/MS); type: in vitro ADME; conditions: mouse plasma samples, K2 EDTA
Protocol: Concentrations of Compound A in plasma were determined using high performance liquid chromatography with tandem mass spectrometry (LC MS/MS). All blood samples were transferred into commercial tube containing Potassium (K2) EDTA and processed for plasma. Samples were centrifuged (3000×g for 10 minutes at 2 to 8° C.) within one hour of collection. The assays used a Sciex API 4000 detector and nifedipine as an internal standard. The calibration ranges for Compound A for were 5.00 to 5000 ng/mL. The plasma concentration of Compound A in mice was subjected to a non-compartmental pharmacokinetic analysis by using the Phoenix WinNonlin software (version 6.3, Pharsight, Mountain View, CA). The nominal dose levels and nominal sampling times were used in the calculation of all pharmacokinetic parameters. The linear/log trapezoidal rule was applied in obtaining the PK parameters.

[3] = test system: MDA-MB-231 human breast tumor cells
Protocol: MDA-MB-231 cells (subclone LM2) (1×10^5) suspended in PBS were injected subcutaneously into the abdominal mammary gland area of mice on day 1 as previously described. […] On the first day of the ninth week, the mice were killed. […] Numbers of metastatic MDA-MB-231 cells in lungs were determined by the clonogenic assay. In brief, lungs were removed from each mouse once sacrificed, finely minced and digested in 5 ml of enzyme cocktail containing 1×PBS and 1 mg/ml collagenase type IV for 2 h at 37° C. on a platform rocker. After incubation, samples were filtered through 70-μm nylon cell strainers and washed twice with PBS. Resulting cells were suspended, plated with a series of dilutions in 10 cm tissue culture dishes in medium containing 2.0 μg/ml puromycin for clonogenic growth. As these MBA-MB-231 tumor cells were stably transfected with the vector pSuper-puro, metastasized tumor cells formed foci after 14 days, at which time they were fixed with 4% paraformaldehyde and stained with crystal violet staining solution for counting.

4T1 breast tumor cells = assay: Combination treatment with Compound A and immunotherapy, 4T1 tumor-bearing BALB/c mice, overall survival; type: in vivo, mouse
Protocol: Female BALB/c mice (6- to 8-week-old) were purchased from Charles River Laboratories. […] Mol Oncol 10, 966-980 (2016). Starting on day 8 or 22, Compound A was given to mice once every day for 5 days a week by oral gavage at 100 mg/kg per mouse. Tumor-bearing mice were given 10 mg/kg anti-PD-1 and 10 mg/kg anti-CTLA-4 antibodies i.p. on day 11, 13, 15, and 17 as previously described. Kim, K. et al. Eradication of metastatic mouse cancers resistant to immune checkpoint blockade by suppression of myeloid-derived cells. Proc Natl Acad Sci USA 111, 11774-11779 (2014). Control group mice were given control mouse IgG at the same time. Primary tumor volume was calculated as length×width^2×π/6.

SMILES: Cc1occc1C(=O)Nc1nn(Cc2ccc(C(F)(F)F)cc2)c2ccccc12 [NP-G2-044]
- overall survival of tumor-bearing mice (MDA-MB-231 tumor cells; NSG mice, MDA-MB-231, primary tumors removed on Day 29, NP-G2-044 started on Day 1, chemotherapy for 4 weeks, death as endpoint (FIG. 2b)): increases overall survival
- overall survival in the combination therapies, earlier versus late start of NP-G2-044 (MDA-MB-231 tumor cells; with chemotherapy, NP-G2-044 starting on day 1 or 8 compared with day 15 (FIG. 2d)): had better effect than late treatment
- metastasis to the lung, single agent ([1]; 4T1 cells implanted into the mammary fat pad (FIG. 1f-g)): blocks tumor metastasis
- tolerability of the dosage regimen ([1]; mouse, in vivo): well tolerated with no signs of overt toxicity
- stability after freeze-thaw, and during storage, processing and analysis [2]: stable
- metastasis to the lung, single agent ([3]; MDA-MB-231 cells implanted into the mammary fat pad, QD or BID (FIG. 1c-e)): blocks tumor metastasis
- tolerability of the dosage regimen ([3]; in vivo): well tolerated with no signs of overt toxicity
- overall survival of tumor-bearing mice (4T1 breast tumor cells; 4T1 tumor-bearing mice, anti-PD-1 and anti-CTLA-4 antibodies, death as endpoint (FIG. 3c)): increased the overall survival
- immunotherapy response (overall survival) in combination therapy, early treatment (4T1 breast tumor cells; NP-G2-044 starting on day 8, with anti-PD-1 and anti-CTLA-4 antibodies (FIG. 3e)): boosted the immunotherapy response
- immunotherapy response (overall survival) in combination therapy, late treatment (4T1 breast tumor cells; NP-G2-044 starting on day 22, with anti-PD-1 and anti-CTLA-4 antibodies (FIG. 3e)): boosted the immunotherapy response
